Data published in ChEMBL document CHEMBL3430850, “MMV Malaria Box gametocyte standard membrane feeding assay screening”.

Assay: MMV: Gametocytes from P. falciparum reporter strain NF54-deltaPf47-5'hsp70-GFP::Luc were exposed to serial dilutions of compounds for 24 hours. Subsequently, compounds were washed out and gametocytes were fed to Anopheles stephensi mosquitoes. Three compounds were tested at six dilutions in one experimental run. All conditions were tested in duplicate in two different experimental runs. Each run included duplicate feeders for vehicle (0.1% DMSO) and positive (10 uM dihydroartemisinin) controls. Eight days post-feeding, oocyst densities were determined by assessment of luminescence signals in homogenized mosquitoes. Up to 24 mosquitoes were analysed per feeder. Luminescence data from individual mosquitoes were normalized against the average signals from the vehicle control feeds that were included in each run. IC50 values were determined by fitting a four-parameter logistic regression model using maximum likelihood optimization to find the best fit.
Assay type: functional, Plasmodium falciparum; call rule not given here

Structure (SMILES) | IC50 (read-out: IC50) [µM] | IC50
CN(C)CCCNc1c2ccccc2nc2ccccc12 | 1.17 | 
COc1ccc(C2c3ccc4ccccc4c3Oc3ncn(CCCN(C)C)c(=N)c32)cc1 (stereo not drawn) | 0.0589 | 
COc1ccc(-c2c(C)nn3c(N)c(C#N)cnc23)cc1OC | 3.63 | 
CCOC(=O)c1cnc2ccc(CC)cc2c1O | 0.11 | 
Cc1ccc(-c2cc3c(nn2)-c2ccccc2C3=O)cc1 | 1.26 | 
CCOC(=O)C1=C(C)N=c2sc(=Cc3cc(Cl)ccc3O)c(=O)n2C1c1ccc(OC)cc1 (stereo not drawn) | 3.24 | 
COC(=O)c1ccc(C2C3=C(O)CC(c4ccc(F)cc4)CC3=Nc3ccccc3N2C(=O)c2ccccc2)cc1 (stereo not drawn) | 8.51 | 
Cc1sc2ncnc(Sc3nc4ccccc4[nH]3)c2c1C | 1.29 | 
CC1CN(C(=O)c2sc3ccccc3c2Cl)CC(C)O1 (stereo not drawn) |  | Not active
CCN(CC)CCn1c(=N)n(CC(O)c2ccc(Cl)c(Cl)c2)c2ccccc21 (stereo not drawn) | 1.66 | 
O=C(NC1CCN(Cc2ccccc2)CC1)c1cc(C(=O)NC2CCN(Cc3ccccc3)CC2)cc(C(=O)NC2CCN(Cc3ccccc3)CC2)c1 | 1.17 | 
Clc1cc(Br)ccc1-c1ccc(CNCC2CCNCC2)o1 | 0.0741 | 
CCOC(=O)c1cn(CC)c2cc(N3CCCCC3)c(F)cc2c1=O | 0.0955 | 
OC(CNC1CCCCC1)Cn1c2ccc(I)cc2c2cc(I)ccc21 (stereo not drawn) |  | Not active
CC(C)(C)c1ccc2c(c1)CN(Cc1ccc(Cl)cc1)CO2 | 0.589 | 
CC1=C(CC(=O)c2cccc([N+](=O)[O-])c2)C(=O)c2ccccc2C1=O | 1.41 | 
OC1CCCCC1C1(NC(=S)Nc2ccccc2)CCCCC1 (stereo not drawn) | 1.74 | 
CN(C)c1ccc(C(O)(c2ccc(N(C)C)cc2)c2ccc(N(C)C)cc2)cc1 [METHYLROSANILINE] | 0.0389 | 
